# Measured values from BindingDB's records for doi:10.1021/jm0506165 (Universita Di Napoli Federico Ii, 2006).
# Biological target: Protein farnesyltransferase/geranylgeranyltransferase type-1 subunit alpha (Bos taurus, UniProt P29702)
# Assay: PFT IC50 Determination
# Settings: pH 7.5; 37 °C
# Method: Assays for PFT activity were performed with a PFT-specific scintillation assay (SPA) kit (Amersham Biosciences, Piscataway, NJ). IC50 values were calculated using linear regression analysis of the plots of [3H] farnesyl pyrophosphate (FPP) prenylation versus concentration of compounds.
row,IC50,Structure (SMILES)
1,100 nM,"CSCC[C@H](NC(=O)[C@H](Cc1ccc(O)c(C)c1C)NC(=O)[C@@H](NC(=O)[C@@H](N)CS)C(C)C)C(=O)O [(2S)-2-[(2S)-2-[(2S)-2-[(2R)-2-amino-3-sulfanylpropanamido]-3-methylbutanamido]-3-(4-hydroxy-2,3-dimethylphenyl)propanamido]-4-(methylsulfanyl)butanoic acid]"
2,> 100000 nM,CSCC[C@H](NC(=O)[C@@H](Cc1ccc(O)c(C)c1C)NC(=O)[C@@H](NC(=O)[C@H](CS)NC=O)C(C)C)C(=O)O [Cmpound XI]
